Experiments:
HIV-1IIIB [1] = test: Combined antiviral activity assay (p24 ELISA, CompuSyn); type: cell-based
NL4-3IN-R263K = test: microbe, parasite or virus in culture; type: cell-based; conditions: Human immunodeficiency virus 1; read-out: EC50
HIV-1DRACC017 = test: microbe, parasite or virus in culture; type: cell-based; conditions: for EC50: Human immunodeficiency virus 1, HIV-1DRACC017, p24; for FC (Fold Change) EC50 (HIV-1DRACC017)/EC50 (HIV-1IIIB): p24
HIV-1IIIB [2] = test: microbe, parasite or virus in culture; conditions: Human immunodeficiency virus 1, C8166, HIV-1IIIB, p24 (Table 4, resistance study)
HIV-1IIIB [3] = test: qPCR determination of Late-RT, 2-LTR and Alu-LTR in infected C8166 cells; type: cell-based
NL4-3 = test: microbe, parasite or virus in culture; type: cell-based; conditions: Human immunodeficiency virus 1, NL43; NL4-3, p24

## CC(C)OC(=O)[C@H](C)N[P@](=O)(CO[C@H](C)Cn1cnc2c(N)ncnc21)Oc1ccccc1 [TAF, Tenofovir alafenamide]
HIV-1IIIB [1]; combination ACC017 + FTC + TAF
  DRI Value ED75: 4.78
  DRI Value ED90: 6.99
  DRI Value ED95: 8.96
HIV-1IIIB [1]; combination DTG + FTC + TAF
  DRI Value ED75: 4.40
  DRI Value ED90: 6.33
  DRI Value ED95: 8.18

## CCn1c(C(=O)c2cc(C)cc(C#N)c2)c(C(C)C)c(=O)[nH]c1=O [ACC007, Ainuovirine]
HIV-1IIIB [1]; combination ACC017 + ACC007
  DRI Value ED75: 3.77
  DRI Value ED90: 6.12
  DRI Value ED95: 8.66
HIV-1IIIB [1]; combination DTG + ACC007
  DRI Value ED75: 4.66
  DRI Value ED90: 7.34
  DRI Value ED95: 10.16

## O=C1Nc2ccc(Cl)cc2[C@@](C#CC2CC2)(C(F)(F)F)O1 [EFV, Efavirenz]
NL4-3IN-R263K
  EC50: 1.62 ± 0.31 nM
HIV-1DRACC017
  EC50: 1.24 ± 0.22 nM
  FC (Fold Change) EC50 (HIV-1DRACC017)/EC50 (HIV-1IIIB): 2.07
HIV-1IIIB [2]
  EC50: 0.6 ± 0.18 nM
HIV-1IIIB [3]; C8166, HIV-1IIIB MOI 0.5, 100 nM ACC017, 4-8 h
  Late-RT level versus positive control (PC) group: significantly lower than that in the PC group
HIV-1IIIB [3]; C8166, HIV-1IIIB MOI 0.5, 100 nM ACC017, 8, 12, 24 h
  2-LTR level (nuclear entry): barely detected
HIV-1IIIB [3]; C8166, HIV-1IIIB MOI 0.5, 100 nM ACC017, 24 h, nested PCR
  Alu-LTR level (integrated provirus): almost undetectable
NL4-3
  EC50: 1.51 ± 0.48 nM

## Nc1ccn([C@@H]2CS[C@H](CO)O2)c(=O)n1 [3TC, Lamivudine]
HIV-1IIIB [1]; combination ACC017 + 3TC
  DRI Value ED75: 6.21
  DRI Value ED90: 7.90
  DRI Value ED95: 9.30
HIV-1IIIB [1]; combination DTG + 3TC
  DRI Value ED75: 5.03
  DRI Value ED90: 6.79
  DRI Value ED95: 8.33
NL4-3IN-R263K
  EC50: 180 ± 38.5 nM
HIV-1DRACC017
  EC50: 322 ± 34.6 nM
  FC (Fold Change) EC50 (HIV-1DRACC017)/EC50 (HIV-1IIIB): 1.78
HIV-1IIIB [2]
  EC50: 181 ± 41.5 nM
NL4-3
  EC50: 198 ± 101 nM

— publication PMC12846677 (Viruses, 2025)
